From US20100063047A1 (KALYPSYS, INC., priority 2008, published 2010) come the findings set out here.

One experiment has as its target T1, human H1 (Homo sapiens, UniProt P35367).
T1 construct: host or cells: CHO-K1, also expressing mitochondrion-targeted aequorin
Nature of the experiment: In vitro histamine H1 receptor cell-based aequorin bioluminescence antagonist assay. Particulars: CHO-K1 cells expressing human H1 and aequorin; histamine at EC80; read-out: H1 Antagonist EC50. Put shortly: (§1)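 CHO-K1 cells stably expressing human H1 or H4 plus mitochondrial aequorin (H4 also with Gα16), loaded with 5 μM coelenterazine-h for 4 h at ~21 °C. Compounds preincubated 15 min at room temperature, then histamine at EC80 added.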

The target in a further experiment is T2, human H4 (Homo sapiens, UniProt Q9H3N8).
T2 construct: host or cells: CHO-K1, also expressing mitochondrion-targeted aequorin and human Gα16
Nature of the experiment: In vitro histamine H4 receptor cell-based aequorin bioluminescence antagonist assay. Particulars: CHO-K1 cells expressing human H4, aequorin and Gα16; histamine at EC80. Put shortly: as §1

Experiment [1] concerns tissue eosinophil peroxidase (EPO). Kind of experiment: Allergic conjunctivitis in passively sensitized guinea pigs, conjunctival EPO activity. The class given is in vivo. The arrangement: key: a test compound was assigned a “+” if a 0.01% bid dose was statistically equivalent to dexamethasone with respect to reduction of EPO activity; a “−” was assigned if the compound was statistically inferior to dexamethasone and not different than vehicle. Particulars: reduction of conjunctival EPO activity 24 h after ovalbumin challenge, compared with 0.1% w/v dexamethasone, guinea pig; for BID activity: 0.01% bid topical dose (1 hour prior to and 8 hours after challenge); for QD activity: ≦0.1% qd topical dose (1 hour prior to challenge). The procedure: (§2) Allergic Conjunctivitis in Passively Sensitized Guinea Pigs
Male Hartley VAF outbred guinea pigs were passively sensitized to ovalbumin by a single OD subconjunctival injection of undiluted guinea pig anti-ovalbumin antiserum 24 hours before OD topical challenge with 500 μg ovalbumin in saline. Control animals were injected with saline only and challenged with ovalbumin. To determine acute phase drug efficacy, 30 min after challenge animals were clinically scored by a masked observer for severity of signs of conjunctivitis based on a standard scale. Test compounds were administered topically 1 hour prior to challenge (QD protocol), or 1 hour prior to challenge and again 8 hours after challenge (BID protocol). Twenty-four hours after challenge, animals were euthanized and conjunctivae were harvested for determination of tissue eosinophil peroxidase (EPO) concentration as a marker of allergic inflammation. Homogenates of freshly collected tissues were prepared by shaking the tissues in 2 mL round-bottom tubes containing 0.5 mL of homogenization buffer (50 mM Tris HCl, pH 8.0, 6 mM KBr) and one 5-mm stainless steel bead on a Qiagen TissueLyser at 30 Hz for 5 min. Homogenates were frozen and thawed once, then centrifuged at 10,000 rpm for 5 min. EPO activity in supernatants was measured by reacting diluted homogenates with a solution of 6 mM o-phenylenediamine substrate and 8.8 mM H2O2 in homogenization buffer for 3 min. The reaction was stopped with 4M H2SO4 and absorbances were measured at 490 nm on a spectrophotometric plate reader. Total EPO in samples was calculated from a standard curve of recombinant human EPO in each assay. EPO activity was normalized to total protein concentration (Pierce BCA assay) in supernatants. Background EPO activity was determined from the unsensitized, antigen-challenged control group. Percent inhibition was calculated from the sensitized, antigen-challenged, vehicle-treated control group in each experiment. Ovalbumin-injected animals dosed topically with 0.1% w/v dexamethasone (dex) served as positive control. Groups were compared by ANOVA with Dunnett's or Tukey's post-hoc tests where appropriate with significance assigned at the 95% confidence level.
The table below summarizes the results.

Experiment [2] shares this test system. The description is as above. The class given is in vivo. The arrangement: key: a test compound was assigned a “+” if a ≦0.1% qd dose was statistically equivalent to dexamethasone with respect to reduction of EPO activity; a “−” was assigned if the compound was statistically inferior to dexamethasone and not different than vehicle. Particulars: ≦0.1% qd topical dose (1 hour prior to challenge); reduction of conjunctival EPO activity 24 h after ovalbumin challenge, compared with 0.1% w/v dexamethasone; guinea pig. As for the experimental part: as §2
Male Hartley VAF outbred guinea pigs were passively sensitized to ovalbumin by a single OD subconjunctival injection of undiluted guinea pig anti-ovalbumin antiserum 24 hours before OD topical challenge with 500 μg ovalbumin in saline. Control animals were injected with saline only and challenged with ovalbumin. To determine acute phase drug efficacy, 30 min after challenge animals were clinically scored by a masked observer for severity of signs of conjunctivitis based on a standard scale. Test compounds were administered topically 1 hour prior to challenge (QD protocol), or 1 hour prior to challenge and again 8 hours after challenge (BID protocol). […] EPO activity in supernatants was measured by reacting diluted homogenates with a solution of 6 mM o-phenylenediamine substrate and 8.8 mM H2O2 in homogenization buffer for 3 min. The reaction was stopped with 4M H2SO4 and absorbances were measured at 490 nm on a spectrophotometric plate reader. Total EPO in samples was calculated from a standard curve of recombinant human EPO in each assay. […] Background EPO activity was determined from the unsensitized, antigen-challenged control group. Percent inhibition was calculated from the sensitized, antigen-challenged, vehicle-treated control group in each experiment. […]

T1 sequence (P35367 whole entry): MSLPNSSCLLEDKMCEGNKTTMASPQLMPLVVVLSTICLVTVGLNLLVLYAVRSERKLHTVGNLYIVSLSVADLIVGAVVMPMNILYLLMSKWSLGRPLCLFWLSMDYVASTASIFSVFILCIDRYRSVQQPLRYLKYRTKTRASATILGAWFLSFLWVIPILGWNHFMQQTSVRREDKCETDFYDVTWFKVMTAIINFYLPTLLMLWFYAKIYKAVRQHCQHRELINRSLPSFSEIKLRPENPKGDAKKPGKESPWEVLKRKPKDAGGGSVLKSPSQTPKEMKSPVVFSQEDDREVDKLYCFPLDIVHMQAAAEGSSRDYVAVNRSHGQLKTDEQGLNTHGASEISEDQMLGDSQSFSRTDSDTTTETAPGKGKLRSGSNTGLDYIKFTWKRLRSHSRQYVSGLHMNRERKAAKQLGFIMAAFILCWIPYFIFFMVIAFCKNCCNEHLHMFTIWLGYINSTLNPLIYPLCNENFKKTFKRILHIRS
T2 sequence (Q9H3N8 whole entry): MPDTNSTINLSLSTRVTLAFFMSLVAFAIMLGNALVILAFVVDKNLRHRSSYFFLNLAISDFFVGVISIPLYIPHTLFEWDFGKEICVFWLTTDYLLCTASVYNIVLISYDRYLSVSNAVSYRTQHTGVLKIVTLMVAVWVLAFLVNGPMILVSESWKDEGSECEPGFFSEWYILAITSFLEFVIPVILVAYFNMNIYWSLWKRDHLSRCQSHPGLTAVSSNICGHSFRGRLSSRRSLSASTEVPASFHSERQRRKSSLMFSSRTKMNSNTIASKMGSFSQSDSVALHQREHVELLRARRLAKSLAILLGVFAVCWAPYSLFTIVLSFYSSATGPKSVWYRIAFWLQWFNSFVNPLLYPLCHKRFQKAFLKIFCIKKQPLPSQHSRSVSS

Take `Clc1ccc(CCNc2nccc3sccc23)cc1` [Example 27, N-(4-chlorophenethyl)thieno[3,2-c]pyridin-4-amine]: the EC50 on human H1 is more than 10 µM. Besides, the EC50 at human H4 is more than 10 µM. For the same molecule, in experiment [1], the BID activity entry is “+” and the QD activity entry is “−”.

Turning to `Cc1sc2ncnc(NCCc3ccccc3Cl)c2c1C` [Example 43, N-[2-(2-chlorophenyl)ethyl]-5,6-dimethylthieno[2,3-d]pyrimidin-4-amine], the EC50 at human H1 is more than 10 µM. Besides, the BID activity result in experiment [1] is listed as “−”.

Take `Clc1ccc(CCNc2ncnc3sccc23)cc1` [Example 45, N-[2-(4-chlorophenyl)ethyl]thieno[2,3-d]pyrimidin-4-amine]: the EC50 on human H1 is more than 10 µM. Further, in experiment [1], the BID activity result is “+” and the QD activity entry is “−”.

`Cc1csc2ncnc(NC3Cc4ccccc4C3)c12` [Example 29, N-(2,3-dihydro-1H-inden-2-yl)-5-methylthieno[2,3-d]pyrimidin-4-amine]: the EC50 at human H1 is more than 10 µM. For the same molecule, the QD activity result in experiment [2] was “+”.

As to `Cc1csc2ncnc(NCc3ccccn3)c12` [Example 85, 5-methyl-N-(pyridin-2-ylmethyl)thieno[2,3-d]pyrimidin-4-amine], the EC50 on human H1 and on human H4 was more than 10 µM each time. Further, in experiment [2], the QD activity entry was “+”.

As to `Cc1csc2ncnc(NN3CCN(C)CC3)c12` [Example 93, 4-methyl-N-{5-methylthieno[2,3-d]pyrimidin-4-yl}piperazin-1-amine], the EC50 on human H1 and at human H4 was more than 10 µM each time.

For `Cc1csc2ncnc(NCC(=O)c3ccccc3)c12` [Example 161, 2-({5-methylthieno[2,3-d]pyrimidin-4-yl}amino)-1-phenylethan-1-one], the EC50 on human H1 and on human H4 was more than 10 µM throughout.

`Cc1csc2ncnc(N(CCO)CCO)c12` [Example 198, 2-[(2-hydroxyethyl)({5-methylthieno[2,3-d]pyrimidin-4-yl})amino]ethan-1-ol]: the EC50 at human H1 and at human H4 was more than 10 µM each time.

In the case of `Cc1csc2ncnc(NCc3ccccc3OC(F)(F)F)c12` [Example 172, 5-methyl-N-{[2-(trifluoromethoxy)phenyl]methyl}thieno[2,3-d]pyrimidin-4-amine], the EC50 on human H1 and at human H4 was more than 10 µM each time.

For the molecule `Cc1csc2ncnc(NCCN(C(C)C)C(C)C)c12` [Example 137], the EC50 at human H1 and at human H4 was more than 10 µM throughout.

`COc1ccc(N2CCN(c3ncnc4scc(C)c34)CC2)cc1` [Example 261, 1-(4-methoxyphenyl)-4-{5-methylthieno[2,3-d]pyrimidin-4-yl}piperazine]: the EC50 at human H1 and at human H4 was more than 10 µM throughout.

Regarding `Cc1csc2ncnc(CC(=O)Nc3ccc(Cl)cc3)c12` [Example 33, N-(4-chlorophenyl)-2-(5-methylthieno[2,3-d]pyrimidin-4-yl)acetamide], the EC50 at human H1 and at human H4 was more than 10 µM throughout.

As to `COc1ccccc1N1CCN(c2ncnc3scc(C)c23)CC1` [Example 262, 1-(2-methoxyphenyl)-4-{5-methylthieno[2,3-d]pyrimidin-4-yl}piperazine], the EC50 at human H1 and on human H4 was more than 10 µM in each case.

Regarding `Cc1csc2ncnc(N(C)C)c12` [Example 178, N,N,5-trimethylthieno[2,3-d]pyrimidin-4-amine], the EC50 at human H1 and at human H4 was more than 10 µM throughout.

`Cc1csc2ncnc(N3CCC(C(N)=O)CC3)c12` [Example 211, 1-{5-methylthieno[2,3-d]pyrimidin-4-yl}piperidine-4-carboxamide]: the EC50 at human H1 and on human H4 was more than 10 µM in each case.

On to `Cc1csc2ncnc(C(=O)NCc3ccc(Cl)cc3)c12` [Example 34, N-(4-chlorobenzyl)-5-methylthieno[2,3-d]pyrimidine-4-carboxamide], for which the EC50 at human H1 and at human H4 was more than 10 µM in each case.

For the molecule `CCCNc1ncnc2scc(C)c12` [Example 54, 5-methyl-N-propylthieno[2,3-d]pyrimidin-4-amine], the half-maximal effective concentration (EC50) at human H1 and at human H4 was more than 10 µM in each case.

`COc1ccc(CCN(C)c2ncnc3scc(C)c23)cc1OC` [Example 264, N-[2-(3,4-dimethoxyphenyl)ethyl]-N,5-dimethylthieno[2,3-d]pyrimidin-4-amine]: the EC50 at human H1 and at human H4 was more than 10 µM each time.

For the molecule `Cc1csc2ncnc(N3CCN(c4ccccc4F)CC3)c12` [Example 245, 1-(2-fluorophenyl)-4-{5-methylthieno[2,3-d]pyrimidin-4-yl}piperazine], the EC50 on human H1 and at human H4 was more than 10 µM each time.
